This series can be described thus: in vitro. The conditions noted are these: rat, gh3-tre-luc cells.

Where a name gives a salt, the structure may show the parent alone. A value given as a limit tells only on which side of the number the result lay.

Molecule `Cc1cc(-n2nc3ccc(Cl)cc3n2)c(O)c(C(C)(C)C)c1` [Bumetrizole] had a CC50 at 24 h (AC50 (uM) modified / 1000) of more than 50 µM. On the same count and under the same terms, the figure for `CC(C[N+](C)(C)C)OC(N)=O` (stereo not shown) [Bethanechol] is more than 50 µM. The same measure, in the same setting: the figure for `c1ccc(-c2ccccc2)cc1` [Biphenyl] is more than 90 µM; for `O=C1C(c2[nH]c3ccccc3c2O)=Nc2ccccc21` [Indigo dye] it is more than 90 µM. The molecule `CCCC(C)c1ccccc1O` (stereo not shown) [2-(1-Methylbutyl)phenol] came in with a CC50 at 24 h (AC50 (uM) modified / 1000) of 54.4 µM. `CCN(CC)C(=O)[C@@H]1C=C2c3cccc4[nH]cc(c34)C[C@H]2N(C)C1` [Lysergide] showed a half-maximal cytotoxic concentration (CC50) at 24 h (AC50 (uM) modified / 1000, Tox21_110001=Tox21_112872, viability, 1 nM T3 present, 24 h) of more than 200 µM and a CC50 at 24 h (AC50 (uM) modified / 1000, Tox21_110001=Tox21_113508, viability, 1 nM T3 present, 24 h) of more than 50 µM.

Take `CC(=O)OC/C=C(/C)CCC=C(C)C` [cis-3,7-Dimethyl-2,6-octadien-1-yl acetate]: the CC50 at 24 h (AC50 (uM) modified / 1000) was more than 90 µM. Still for that read-out and setting: the figure for `CC(C)=CCOC(=O)c1ccccc1` [3-Methyl-2-butenyl benzoate] is more than 90 µM; for `CCN1CC(CCN2CCOCC2)C(c2ccccc2)(c2ccccc2)C1=O` (stereo not shown) [Doxapram hydrochloride] it is more than 50 µM; for `Nc1ccc(S(=O)(=O)NC(=O)c2ccccc2)cc1` [Sulfabenzamide] it is more than 20 µM. On the same count and under the same terms, then `C[C@H](/C=C/[C@H](C)C(C)(C)O)[C@H]1CC[C@H]2/C(=C/C=C3C[C@@H](O)C[C@H](O)C3)CCC[C@]12C` [Paricalcitol], with 27 µM; and `CO/N=C(/C(=O)OC)c1ccccc1CO/N=C(\C)c1cccc(C(F)(F)F)c1` [Trifloxystrobin], with 36.9 µM. Still for that read-out and setting: then `CN[C@H]1C[C@@H](N)[C@H](O)[C@@H](O[C@@H]2O[C@H](CO)[C@H](O)[C@@H]3OC4(O[C@H]23)O[C@H]([C@@H](N)CO)[C@H](O)[C@H](O)[C@H]4O)[C@@H]1O` (stereo partly shown) [Hygromycin B], with more than 50 µM; and `Cc1cc(C2CC2)nc(Nc2ccccc2)n1` [Cyprodinil], with 74.9 µM; and `O[C@@H]([C@H](O)[C@H](O)CBr)[C@H](O)CBr` [Dibromomannitol], with more than 90 µM.

In turn, `O=C(O)c1nn(Cc2ccc(Cl)cc2Cl)c2ccccc12` [Lonidamine] registered a CC50 at 24 h (AC50 (uM) modified / 1000) of more than 90 µM. As for `C[C@]12CCC(=O)C[C@@H]1CC[C@@H]1[C@@H]2CC[C@]2(C)[C@@H](O)CC[C@@H]12` [5alpha-Dihydrotestosterone], the CC50 at 24 h was more than 50 µM (AC50 (uM) modified / 1000, Tox21_110001=Tox21_111056, viability, 1 nM T3 present, 24 h); more than 90 µM (AC50 (uM) modified / 1000, Tox21_110001=Tox21_200987, viability, 1 nM T3 present, 24 h); more than 60 µM (AC50 (uM) modified / 1000, Tox21_110001=Tox21_303655, viability, 1 nM T3 present, 24 h). `CC[C@@H](CO)NC(=O)[C@@H]1C=C2c3cccc4c3c(cn4C)C[C@H]2N(C)C1` [Methysergide] showed a 50% cytotoxic concentration (CC50) at 24 h (AC50 (uM) modified / 1000) of more than 50 µM. `N#Cc1ccc(N(CC(N)=O)CC(F)(F)F)cc1C(F)(F)F` [GSK232420A] displayed a CC50 at 24 h (AC50 (uM) modified / 1000, Tox21_110001=Tox21_300220, viability, 1 nM T3 present, 24 h) of more than 90 µM. The molecule `O=[N+]([O-])c1ccccc1Nc1ccccc1` [2-Nitrodiphenylamine] displayed a CC50 at 24 h (AC50 (uM) modified / 1000) of more than 90 µM. Turning to `O=C(C1CCCCC1)N1CC(=O)N2CCc3ccccc3C2C1` (stereo not shown) [Praziquantel], for the setting “AC50 (uM) modified / 1000”, the CC50 at 24 h is more than 90 µM. Same read-out and setting: then `O=C1c2ccccc2CN2C(=O)c3ccccc3CN12` [Diftalone], with more than 50 µM; and `Nc1nc2nc[nH]c2c(=S)[nH]1` [6-Thioguanine], with more than 90 µM. The same measure, in the same setting: the figure for `CN(C)c1nc(=O)n(C2CCCCC2)c(=O)n1C` [Hexazinone] is more than 100 µM; for `c1ccc(CNCc2ccccc2)cc1` [Dibenzylamine] it is more than 90 µM. On the same count and under the same terms, the figure for `COc1cc(C[C@@H](C)N)c(OC)cc1C` [R-(-)-2,5-Dimethoxy-4-methylamphetamine hydrochloride] is 41.9 µM; for `CCN[C@H]1C[C@H](C)S(=O)(=O)c2sc(S(N)(=O)=O)cc21` [Dorzolamide hydrochloride] it is more than 50 µM.

For the setting “AC50 (uM) modified / 1000”, `CN(C[C@@H](CC[N+]12CCC(C3CCCCC3)(CC1)CC2)c1ccc(Cl)c(Cl)c1)C(=O)c1cc(C(F)(F)F)cc(C(F)(F)F)c1` [UK-337312] returned a CC50 at 24 h of 17 µM. Turning to `C[C@H](O)CCO` [1,3-Butanediol], under “AC50 (uM) modified / 1000”, the CC50 at 24 h is more than 90 µM.

For the molecule `CCN(CC)CC#CCOC(=O)C(O)(c1ccccc1)C1CCCCC1` (stereo not shown) [Oxybutynin chloride], where the note is “AC50 (uM) modified / 1000”, the CC50 at 24 h amounted to 15.3 µM.

Molecule `Oc1ccc(O)c2c(O)cccc12` [1,4,5-Trihydroxynaphthalene] gave a CC50 at 24 h (AC50 (uM) modified / 1000) of more than 90 µM. Same read-out and setting: the figure for `C=CC(=O)OCCCl` [2-Chloroethyl acrylate] is more than 90 µM.

With `C=CCc1cc(S(=O)(=O)c2ccc(O)c(CC=C)c2)ccc1O` [4,4'-Sulfonylbis[2-(prop-2-en-1-yl)phenol]], it took 49.1 µM to reach half-maximal cytotoxicity (AC50 (uM) modified / 1000) (CC50 at 24 h).

The molecule `Nc1ccc(C(=O)O)cc1` [4-Aminobenzoic acid] registered a CC50 at 24 h (AC50 (uM) modified / 1000) of more than 90 µM. Where the note is “AC50 (uM) modified / 1000, Tox21_110001=Tox21_201657, viability, 1 nM T3 present, 24 h”, `COC(=O)c1ccccc1N` [Methyl 2-aminobenzoate] registered a 50% cytotoxic concentration (CC50) at 24 h of more than 90 µM.

Consider `C=CCCCCCCCCC(=O)OCC` [Ethyl undec-10-enoate], for which, under “AC50 (uM) modified / 1000”, the CC50 at 24 h was more than 90 µM. The same measure, in the same setting: then `COc1cc(/C=C/c2ccccc2)oc(=O)c1` [Desmethoxyyangonin], with more than 90 µM; and `COc1cc(CCC(C)=O)ccc1O` [4-(4-Hydroxy-3-methoxyphenyl)-2-butanone], with more than 90 µM. Same read-out and setting: the figure for `O=C1NC(=O)[C@@H]2CC=CC[C@H]12` [1,2,3,6-Tetrahydrophthalimide] is more than 90 µM; for `O=C(O)c1cccnc1C(=O)O` [Quinolinic acid] it is more than 90 µM; for `CCCCCCCCCCCCCC[n+]1ccccc1` [Tetradecylpyridinium bromide] it is 6.51 µM. The same measure, in the same setting: then `NC(CO)C(=O)NNCc1ccc(O)c(O)c1O` (stereo not shown) [Benserazide hydrochloride], with more than 50 µM; and `CC(=O)O[C@H]1C[C@H](O[C@H]2[C@@H](O)C[C@H](O[C@H]3[C@@H](O)C[C@H](O[C@H]4CC[C@@]5(C)[C@H](CC[C@@H]6[C@@H]5CC[C@]5(C)[C@@H](C7=CC(=O)OC7)CC[C@]65O)C4)O[C@@H]3C)O[C@@H]2C)O[C@H](C)[C@H]1O[C@@H]1O[C@H](CO)[C@@H](O)[C@H](O)[C@H]1O` [Lanatoside A], with more than 50 µM; and `COc1ccc(C)cc1` [1-Methoxy-4-methylbenzene], with more than 90 µM. As for `CC1(C)[C@@H](OC(=O)CCC(=O)O)CC[C@]2(C)[C@H]3C(=O)C=C4[C@@H]5C[C@@](C)(C(=O)O)CC[C@]5(C)CC[C@@]4(C)[C@]3(C)CC[C@@H]12` [Carbenoxolone sodium], the CC50 at 24 h (AC50 (uM) modified / 1000) is more than 20 µM. The same measure, in the same setting: then `CC(C)C(=O)OCC(C)(C)C(OC(=O)C(C)C)C(C)C` (stereo not shown) [2,2,4-Trimethyl-1,3-pentanediol diisobutyrate], with more than 90 µM; and `C[C@@H](NCCCc1cccc(C(F)(F)F)c1)c1cccc2ccccc12` [Cinacalcet hydrochloride], with 5.95 µM. Still for that read-out and setting: the figure for `CCCN1CCC[C@@H]2Cc3n[nH]cc3C[C@H]21` [(-)-Quinpirole hydrochloride] is more than 50 µM. Regarding `CC(C)(O)C#N` [2-Hydroxy-2-methylpropanenitrile], the CC50 at 24 h by setting is: (AC50 (uM) modified / 1000, Tox21_110001=Tox21_201490, viability, 1 nM T3 present, 24 h) more than 100 µM; (AC50 (uM) modified / 1000, Tox21_110001=Tox21_303256, viability, 1 nM T3 present, 24 h) more than 90 µM.

For the molecule `COC(=O)c1ccc(O)cc1` [Methylparaben], the CC50 at 24 h (AC50 (uM) modified / 1000) was more than 90 µM. Molecule `O=C(Cc1ccccc1)OCc1ccccc1` [Benzyl phenylacetate] gave a CC50 at 24 h (AC50 (uM) modified / 1000, Tox21_110001=Tox21_200685, viability, 1 nM T3 present, 24 h) of more than 90 µM. Take `O=C(Nc1ccc(Br)cc1)c1cc(Br)cc(Br)c1O` [Tribromsalan]: the CC50 at 24 h is, setting by setting: (AC50 (uM) modified / 1000, Tox21_110001=Tox21_111700, viability, 1 nM T3 present, 24 h) 14.2 µM; (AC50 (uM) modified / 1000, Tox21_110001=Tox21_202442, viability, 1 nM T3 present, 24 h) 5.41 µM; (AC50 (uM) modified / 1000, Tox21_110001=Tox21_303223, viability, 1 nM T3 present, 24 h) 6.43 µM. Consider `NCCNCCNCCNCCN` [Tetraethylenepentamine], for which, where the note is “AC50 (uM) modified / 1000”, the CC50 at 24 h is more than 90 µM.

Take `CCOc1ccc2nc3cc(N)ccc3c(N)c2c1` [Ethacridine lactate hydrate]: the CC50 at 24 h (AC50 (uM) modified / 1000) is more than 50 µM.

Take `CCCCCCC1CCC(=O)O1` (stereo not shown) [gamma-Decanolactone]: the half-maximal cytotoxic concentration (CC50) at 24 h (AC50 (uM) modified / 1000) was more than 90 µM. On the same count and under the same terms, then `COc1ccc(C(=O)CCC(=O)O)c2ccccc12` [Menbutone], with more than 50 µM.

`O=C(O)COc1ccc(Cl)cc1Cl` [2,4-D, Dimethylamine salt] came in with a CC50 at 24 h (AC50 (uM) modified / 1000) of more than 90 µM.

On to `Cc1cccc(O)c1C` [2,3-Dimethylphenol], for which, where the note is “AC50 (uM) modified / 1000”, the CC50 at 24 h is more than 90 µM. On to `O=S(=O)(O)C(F)(F)F` [Trifluoromethanesulfonic acid], for which the CC50 at 24 h (AC50 (uM) modified / 1000) is more than 90 µM. The same measure, in the same setting: the figure for `NCc1ccccc1` [Benzylamine] is more than 90 µM. On the same count and under the same terms, then `CCCCCCC(C)OC(=O)COc1nc(F)c(Cl)c(N)c1Cl` (stereo not shown) [Fluroxypyr-meptyl], with 51.1 µM. With `OCc1ccco1` [Furfuryl alcohol], the CC50 at 24 h (AC50 (uM) modified / 1000) was more than 90 µM. Take `O=C(Oc1ccccc1)c1cccc(C(=O)Oc2ccccc2)c1` [Diphenyl isophthalate]: the CC50 at 24 h (AC50 (uM) modified / 1000) is more than 100 µM. Take `CCC(Cc1ccccc1)(C(=O)c1ccc(N2CCOCC2)cc1)N(C)C` (stereo not shown) [2-Benzyl-2-(dimethylamino)-1-[4-(morpholin-4-yl)phenyl]butan-1-one]: the CC50 at 24 h (AC50 (uM) modified / 1000) is 68.2 µM.

One may read the CC50 as the concentration at which the toxic effect on the cells reaches its halfway point.

Source of the values: article PMC6792352, “Limited Chemical Structural Diversity Found to Modulate Thyroid Hormone Receptor in the Tox21 Chemical Library” (Environmental Health Perspectives, 2019).
